Tested on: HIV-1 fusion
Assay: gp160 induced cell-cell fusion assay (HeLa P4 / CHO-Tat10 cell lines)
Format: cell-based
Details: Human immunodeficiency virus 1, HeLaP4, read-out: IC50 against HIV-1 fusion
Method: The gp160 induced cell-cell fusion assay uses a HeLa P4 cell line and a CHO-Tat10 cell line.
The HeLa P4 cell line expresses CCR5 and CD4 and has been transfected with HIV-1 LTR-β-Galactosidase. The media for this cell line is Dulbecco modified eagle's medium (D-MEM) (without L-glutamine) containing 10% foetal calf serum (FCS), 2 mM L-glutamine penicillin/streptomycin (Pen/Strep; 100 U/mL penicillin+[…] streptomycin), and 1 μg/ml puromycin.
The CHO cell line is a Tat (transcriptional trans activator)-expressing clone from a CHO JRR17.1 cell line that has been transfected with pTat puro plasmid. The media for this cell line is rich medium for mammalian cell culture originally developed at Roswell Park Memorial Institute RPMI1640 (without L-glutamine) containing 10% FCS, 2 mM L-glutamine, 0.5 mg/ml Hygromycin B and 12 μg/ml puromycin. The CHO JRR17.1 line expresses gp160 (JRFL) and is a clone that has been selected for its ability to fuse with a CCR5/CD4 expressing cell line.
Upon cell fusion, Tat present in the CHO cell is able to transactivate the HIV-1 long terminal repeat (LTR) present in the HeLa cell leading to the expression of the β-Galactosidase enzyme. This expression is then measured using a Fluor Ace™ β-Galactosidase reporter assay kit (Bio-Rad cat no. 170-3150). This kit is a quantitative fluorescent assay that determines the level of expression of β-galactosidase using 4-methylumbelliferul-galactopyranoside (MUG) as substrate. β-Galactosidase hydrolyses the fluorogenic substrate resulting in release of the fluorescent molecule 4-methylumbelliferone (4MU). Fluorescence of 4-methylumbelliferone is then measured on a fluorometer using an excitation wavelength of 360 nm and emission wavelength of 460 nm.
Compounds that inhibit fusion will give rise to a reduced signal and, following solubilisation in an appropriate solvent and dilution in culture medium, a dose-response curve for each compound can be used to calculate IC50 values.

SMILES	IC50
Cc1ncnc(C)c1C(=O)N1CCC(C)(N2CCC(N(Cc3ccccc3)S(C)(=O)=O)CC2)CC1 [Example 29, N-benzyl-N-{1′-[(4,6-dimethylpyrimidin-5-yl)carbonyl]-4′-methyl-1,4′-bipiperidin-4-yl}methanesulfonamide]	346 nM
Cc1ncnc(C)c1C(=O)N1CCC(C)(N2CCC(N(Cc3ccccc3F)C(=O)C3CC(F)(F)C3)CC2)CC1 [Example 25, N-{1′-[(4,6-dimethylpyrimidin-5-yl)carbonyl]-4′-methyl-1,4′-bipiperidin-4-yl}-3,3-difluoro-N-(2-fluorobenzyl)cyclobutanecarboxamide]	5.5 nM
Cc1ncnc(C)c1C(=O)N1C[C@H]2CC[C@@H](C1)[C@H]2N1CCC(N(Cc2ccccc2)C(=O)C2CC2)CC1 [Example 10, N-benzyl-N-(1-{(8-syn)-3-[(4,6-dimethylpyrimidin-5-yl)carbonyl]-3-azabicyclo}piperidin-4-yl)cyclopropanecarboxamide]	516 nM
Cc1ccnc(C)c1C(=O)N1CCC(C)(N2CCC(N(Cc3cccc(F)c3)C(=O)C3CC3)CC2)CC1 [Example 47, N-{1′-[(2,4-dimethylpyridin-3-yl)carbonyl]-4′-methyl-1,4′-bipiperidin-4-yl}-N-(3-fluorobenzyl)cyclopropanecarboxamide.2HCl]	0.343 nM
Cc1ccnc(C)c1C(=O)N1CCC(C)(N2CCC(N(Cc3ccccc3)C(=O)C3CC(F)(F)C3)CC2)CC1 [Example 1, N-benzyl-N-{1′-[(2,4-dimethylpyridin-3-yl)carbonyl]-4′-methyl-1,4′-bipiperidinyl-4-yl}-3,3-difluorocyclobutanecarboxamide]	0.013 nM

From patent publication US20090124635A1, “CHEMICAL COMPOUNDS” (priority 2005, published 2009)
